Data reported in ChEMBL document CHEMBL3352432, “Synthesis and biological evaluation of 2-anilino-4-substituted-7H-pyrrolopyrimidines as PDK1 inhibitors” (Bioorg Med Chem, 2014).

Each compound was assayed against T1, 3-phosphoinositide-dependent protein kinase 1 (Homo sapiens, UniProt O15530) (assay: Inhibition of PDK1 (unknown origin) expressed in HEK293 cells using PDKtide as substrate after 10 mins by liquid scintillation counting in presence of [gamma-32P]ATP).
T1 sequence (O15530 whole entry): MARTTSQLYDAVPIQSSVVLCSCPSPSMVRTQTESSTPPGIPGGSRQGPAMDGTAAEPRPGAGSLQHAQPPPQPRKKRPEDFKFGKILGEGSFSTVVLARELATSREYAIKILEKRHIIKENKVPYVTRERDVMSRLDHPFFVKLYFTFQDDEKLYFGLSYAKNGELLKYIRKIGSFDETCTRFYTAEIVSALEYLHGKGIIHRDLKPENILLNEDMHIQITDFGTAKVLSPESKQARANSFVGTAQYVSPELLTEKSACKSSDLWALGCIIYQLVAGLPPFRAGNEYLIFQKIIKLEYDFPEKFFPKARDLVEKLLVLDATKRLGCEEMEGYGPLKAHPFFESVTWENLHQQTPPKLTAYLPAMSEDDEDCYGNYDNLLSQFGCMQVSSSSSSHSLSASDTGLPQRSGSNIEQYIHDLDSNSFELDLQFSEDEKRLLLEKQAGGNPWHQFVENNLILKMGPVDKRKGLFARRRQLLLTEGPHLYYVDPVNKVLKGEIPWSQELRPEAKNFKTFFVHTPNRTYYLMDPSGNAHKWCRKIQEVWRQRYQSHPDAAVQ
For `COc1nc(Nc2cccc(NC(=O)N3CCCC3)c2)nc2[nH]ccc12`, the IC50 was 1.2 µM.
`COc1ccc(-c2nc(Nc3cccc(NC(=O)N4CCCC4)c3)nc3[nH]ccc23)cc1` was tested, and the IC50 was 4.9 µM.

Each compound was assayed against T2, 3-phosphoinositide-dependent protein kinase 1 (Homo sapiens) (UniProt O15530) (assay: Inhibition of PDK1 (unknown origin) expressed in HEK293 cells using PDKtide as substrate at 10 uM after 10 mins by liquid scintillation counting in presence of [gamma-32P]ATP).
T2 sequence (whole entry): T1 sequence (O15530 whole entry)
`O=C(Nc1cccc(Nc2nc(-c3ccc4c(c3)OCO4)c3cc[nH]c3n2)c1)N1CCCC1` gave an inhibition of 61%.
In the case of `COc1ccc(Oc2nc(Nc3cccc(NC(=O)N4CCCC4)c3)nc3[nH]ccc23)cc1`, the inhibition is reported as 65%.
`COc1nc(Nc2cccc(NC(=O)N3CCCC3)c2)nc2[nH]ccc12` showed an inhibition of 90%.
Compound `O=C(Nc1cccc(Nc2nc(-c3ccccc3)c3cc[nH]c3n2)c1)N1CCCC1` has an inhibition of 59%.
With `COc1ccc(-c2nc(Nc3cccc(NC(=O)N4CCCC4)c3)nc3[nH]ccc23)cc1OC` the inhibition was 65%.
`COc1ccc(-c2nc(Nc3cccc(NC(=O)N4CCCC4)c3)nc3[nH]ccc23)cc1` showed an inhibition of 70%.
`O=C(Nc1cccc(Nc2nc(-c3cccc(OCc4cccnc4)c3)c3cc[nH]c3n2)c1)N1CCCC1` gave an inhibition of 46%.
For `COc1cc(-c2nc(Nc3cccc(NC(=O)N4CCCC4)c3)nc3[nH]ccc23)cc(OC)c1OC`, the inhibition was 36%.
`COc1cccc(-c2nc(Nc3cccc(NC(=O)N4CCCC4)c3)nc3[nH]ccc23)c1` showed an inhibition of 48%.
`COc1ccc(Nc2nc(Nc3cccc(NC(=O)N4CCCC4)c3)nc3[nH]ccc23)cc1` gave an inhibition of 45%.
Work on `O=C(Nc1cccc(Nc2nc(Nc3ccccc3)c3cc[nH]c3n2)c1)N1CCCC1` yielded an inhibition of 46%.
